In patent US10314308B2, “Microbiocidal benzoxaboroles” (SYNGENTA PARTICIPATIONS AG, priority 2015, dated 2019):

Columns and labels:
[1] = test system: Plasmopara Viticola; experiment: whole plant or invertebrate; assay type: in vivo; settings: foliar, read-out: disease control
[2] = test system: Mycosphaerella Arachidis(Cercospora Arachidicola); experiment: Mycosphaerella arachidis (Cercospora arachidicola) / liquid culture (early leaf spot); assay type: cell-based; settings: PDB potato dextrose broth, 24° C., 4-5 days after application, read-out: disease control (inhibition of growth, photometrically)
Protocol: (§1) 11 Mycosphaerella Arachidis(Cercospora Arachidicola)/Liquid Culture (Early Leaf Spot) Conidia of the fungus from cryogenic storage were directly mixed into nutrient broth (PDB potato dextrose broth). After placing a DMSO solution of test compound into a 96-well microtiter plate, the nutrient broth containing the fungal spores was added. The test plates were incubated at 24° C. and the inhibition of growth was determined photometrically 4-5 days after application.

[3] = test system: Monographella Nivalis(Microdochium Nivale); experiment: Monographella nivalis (Microdochium nivale) / liquid culture (foot rot cereals); assay type: cell-based; settings: PDB potato dextrose broth, 24° C., 4-5 days after application, read-out: disease control (inhibition of growth, photometrically)
Protocol: as §1, with “14 Monographella Nivalis(Microdochium Nivale)/Liquid” for “11 Mycosphaerella Arachidis(Cercospora Arachidicola)/Liquid”, “(Foot Rot Cereals)” for “(Early Leaf Spot)”

[4] = test system: Pythium Ultimum; experiment: Pythium ultimum / liquid culture (seedling damping off); assay type: cell-based; settings: Globisporangium ultimum, potato dextrose broth, 24° C., 2-3 days after application, read-out: disease control (inhibition of growth, photometrically)
[5] = test system: Mycosphaerella Graminicola(Septoria Tritici); experiment: Mycosphaerella graminicola (Septoria tritici) / liquid culture (Septoria blotch); assay type: cell-based; settings: Zymoseptoria tritici, PDB potato dextrose broth, 24° C., 4-5 days after application, read-out: disease control (inhibition of growth, photometrically)
Protocol: as §1, with “12” for “11”, “Graminicola(Septoria Tritici)/Liquid” for “Arachidis(Cercospora Arachidicola)/Liquid”, “(Septoria Blotch)” for “(Early Leaf Spot)”

[6] = test system: Gaeumannomyces Graminis; experiment: Gaeumannomyces graminis / liquid culture (take-all of cereals); assay type: cell-based; settings: PDB potato dextrose broth, 24° C., 4-5 days after application, read-out: disease control (inhibition of growth, photometrically)
Protocol: 13 Gaeumannomyces Graminis/Liquid Culture (Take-all of Cereals) Mycelial fragments of the fungus from cryogenic storage were directly mixed into nutrient broth (PDB potato dextrose broth). After placing a DMSO solution of test compound into a 96-well microtiter plate, the nutrient broth containing the fungal spores is added. The test plates were incubated at 24° C. and the inhibition of growth was determined photometrically 4-5 days after application.

[7] = test system: Glomerella Lagenarium(Colletotrichum Ladenarium); experiment: Glomerella lagenarium (Colletotrichum lagenarium) / liquid culture (anthracnose); assay type: cell-based; settings: PDB potato dextrose broth, 24° C., 3-4 days after application, read-out: disease control (inhibition of growth, photometrically)
Protocol: as §1, with “10 Glomerella Lagenarium(Colletotrichum Ladenarium)/Liquid” for “11 Mycosphaerella Arachidis(Cercospora Arachidicola)/Liquid”, “(Anthracnose)” for “(Early Leaf Spot)”, “measured” for “determined”, “3-4” for “4-5”

[8] = test system: Botryotinia Fuckeliana(Botrytis Cinerea); experiment: Botryotinia fuckeliana (Botrytis cinerea) / liquid culture (gray mould); assay type: cell-based; settings: Vogels broth, 24° C., 3-4 days after application, read-out: disease control (inhibition of growth, photometrically)
Protocol: as §1, with “9 Botryotinia Fuckeliana(Botrytis Cinerea)/Liquid” for “11 Mycosphaerella Arachidis(Cercospora Arachidicola)/Liquid”, “(Gray Mould)” for “(Early Leaf Spot)”, “(Vogels” for “(PDB potato dextrose”, “3-4” for “4-5”

[9] = test system: Sclerotinia Sclerotiorum; experiment: Sclerotinia sclerotiorum / liquid culture (cottony rot); assay type: cell-based; settings: PDB potato dextrose broth, 24° C., 3-4 days after application, read-out: disease control (inhibition of growth, visually)
Protocol: 17 Sclerotinia Sclerotiorum/Liquid Culture (Cottony Rot) Mycelia fragments of a newly grown liquid culture of the fungus were directly mixed into nutrient broth (PDB potato dextrose broth). After placing a (DMSO) solution of the test compounds into a microtiter plate (96-well format) the nutrient broth containing the fungal material was added. The test plates were incubated at 24° C. and the inhibition of growth was determined visually 3-4 days after application.

[10] = test system: Fusarium Culmorum; experiment: microbe, parasite or virus in culture; assay type: cell-based; settings: read-out: disease control (inhibition of growth, photometrically)

CCn1cc(-c2cc3c(cc2Cl)COB3O)cn1 [Compound 71]
≥ 80%: pest or weed control at 200 ppm [1] | inhibition at 20 ppm [2] | inhibition at 20 ppm [3] | inhibition at 20 ppm [4]

CON=Cc1ccc(-c2cc3c(cc2Cl)COB3O)o1 (racemic) [Compound 23, 1-[5-(5-chloro-1-hydroxy-3H-2,1-benzoxaborol-6-yl)-2-furyl]-N-methoxy-methanimine]
≥ 80%: inhibition at 20 ppm [5] | inhibition at 20 ppm [2] | inhibition at 20 ppm [3] | inhibition at 20 ppm [4] | inhibition at 20 ppm [6] | inhibition at 20 ppm [7]

COc1ncc(-c2cc3c(cc2Cl)COB3O)c(OC)n1 [Compound 69]
≥ 80%: inhibition at 20 ppm [4]

Cc1nn(C)c(C)c1-c1cc2c(cc1F)COB2O [Compound 55]
≥ 80%: pest or weed control at 200 ppm [1] | inhibition at 20 ppm [4]

CCOc1ccc(-c2cc3c(cc2F)COB3O)cn1 [Compound 64]
≥ 80%: pest or weed control at 200 ppm [1] | inhibition at 20 ppm [3] | inhibition at 20 ppm [4]

OB1OCc2cc(F)c(-c3cnccc3C(F)(F)F)cc21 [Compound 78]
≥ 80%: pest or weed control at 200 ppm [1] | inhibition at 20 ppm [4]

OB1OCc2cc(Cl)c(-c3ccc(N4CCOCC4)nc3)cc21 [Compound 70]
≥ 80%: inhibition at 20 ppm [5] | inhibition at 20 ppm [2] | inhibition at 20 ppm [3] | inhibition at 20 ppm [4]

COc1ncc(-c2cc3c(cc2F)COB3O)c(OC)n1 [Compound 58]
≥ 80%: inhibition at 20 ppm [3] | inhibition at 20 ppm [4]

OB1OCc2cc(Cl)c(-c3ccncc3)cc21 [Compound 7]
≥ 80%: pest or weed control at 200 ppm [1] | inhibition at 20 ppm [4]

COc1ccc(-c2cc3c(cc2Cl)COB3O)cn1 [Compound 85]
≥ 80%: inhibition at 20 ppm [3] | inhibition at 20 ppm [4]

Cn1nccc1-c1cc2c(cc1F)COB2O [Compound 10]
≥ 80%: inhibition at 20 ppm [5] | inhibition at 20 ppm [8] | inhibition at 20 ppm [2] | inhibition at 20 ppm [9] | inhibition at 20 ppm [4] | inhibition at 20 ppm [10] | inhibition at 20 ppm [7]

Cn1cc(-c2cc3c(cc2F)COB3O)cn1 [Compound 77]
≥ 80%: inhibition at 20 ppm [2] | inhibition at 20 ppm [4] | inhibition at 20 ppm [6]

O=Cc1csc(-c2cc3c(cc2Cl)COB3O)c1 [Compound 34]
≥ 80%: inhibition at 20 ppm [5] | inhibition at 20 ppm [2] | inhibition at 20 ppm [3] | inhibition at 20 ppm [4] | inhibition at 20 ppm [6] | inhibition at 20 ppm [10] | inhibition at 20 ppm [7]

Cn1nccc1-c1cc2c(cc1Cl)COB2O [Compound 9]
≥ 80%: pest or weed control at 200 ppm [1] | inhibition at 20 ppm [4]

CCn1cc(-c2cc3c(cc2F)COB3O)cn1 [Compound 60]
≥ 80%: pest or weed control at 200 ppm [1] | inhibition at 20 ppm [2] | inhibition at 20 ppm [3] | inhibition at 20 ppm [4] | inhibition at 20 ppm [6] | inhibition at 20 ppm [7]

OB1OCc2cc(Cl)c(-c3ccncc3Cl)cc21 [Compound 89]
≥ 80%: inhibition at 20 ppm [5] | pest or weed control at 200 ppm [1] | inhibition at 20 ppm [2] | inhibition at 20 ppm [3] | inhibition at 20 ppm [4] | inhibition at 20 ppm [7]

OB1OCc2cc(F)c(-c3cncc(C(F)(F)F)c3)cc21 [Compound 82]
≥ 80%: inhibition at 20 ppm [5] | inhibition at 20 ppm [2] | inhibition at 20 ppm [3] | inhibition at 20 ppm [9] | inhibition at 20 ppm [4] | inhibition at 20 ppm [6] | inhibition at 20 ppm [7]

Cn1nc(-c2cc3c(cc2F)COB3O)c2ccccc21 [Compound 48]
≥ 80%: pest or weed control at 200 ppm [1] | inhibition at 20 ppm [3] | inhibition at 20 ppm [4] | inhibition at 20 ppm [6]

CSc1ncc(-c2cc3c(cc2Cl)COB3O)c(C)n1 [Compound 20]
≥ 80%: inhibition at 20 ppm [3] | inhibition at 20 ppm [4] | inhibition at 20 ppm [10]

N#Cc1ccc(-c2cc3c(cc2Cl)COB3O)o1 [Compound 41]
≥ 80%: inhibition at 20 ppm [5] | pest or weed control at 200 ppm [1] | inhibition at 20 ppm [3] | inhibition at 20 ppm [4] | inhibition at 20 ppm [6] | inhibition at 20 ppm [7]

OB1OCc2cc(F)c(-c3cc4ccccc4[nH]3)cc21 [Compound 61]
≥ 80%: inhibition at 20 ppm [5] | pest or weed control at 200 ppm [1] | inhibition at 20 ppm [2] | inhibition at 20 ppm [3] | inhibition at 20 ppm [9] | inhibition at 20 ppm [4] | inhibition at 20 ppm [6]

OB1OCc2cc(F)c(-c3ccc(N4CCOCC4)nc3)cc21 [Compound 59]
≥ 80%: inhibition at 20 ppm [4]

OB1OCc2cc(Cl)c(-c3cc4ccccc4o3)cc21 [Compound 37]
≥ 80%: pest or weed control at 200 ppm [1] | inhibition at 20 ppm [3] | inhibition at 20 ppm [6] | inhibition at 20 ppm [7]

OB1OCc2cc(Cl)c(-c3cnccc3C(F)(F)F)cc21 [Compound 87]
≥ 80%: pest or weed control at 200 ppm [1] | inhibition at 20 ppm [3] | inhibition at 20 ppm [4]

N#Cc1csc(-c2cc3c(cc2Cl)COB3O)c1 [Compound 43]
≥ 80%: pest or weed control at 200 ppm [1] | inhibition at 20 ppm [3] | inhibition at 20 ppm [4] | inhibition at 20 ppm [6] | inhibition at 20 ppm [7]

Cc1cc(-c2cc3c(cc2F)COB3O)c(C)s1 [Compound 80]
≥ 80%: inhibition at 20 ppm [2] | inhibition at 20 ppm [3] | inhibition at 20 ppm [4] | inhibition at 20 ppm [7]

OB1OCc2cc(Cl)c(-c3cc(Br)cs3)cc21 [Compound 46]
≥ 80%: inhibition at 20 ppm [5] | inhibition at 20 ppm [3] | inhibition at 20 ppm [4] | inhibition at 20 ppm [6] | inhibition at 20 ppm [7]

Cn1cc(-c2cc3c(cc2Cl)COB3O)cn1 [Compound 86]
≥ 80%: inhibition at 20 ppm [2] | inhibition at 20 ppm [3] | inhibition at 20 ppm [4] | inhibition at 20 ppm [6]

Cc1nc(Nc2ccccc2)nc(C2CC2)c1-c1cc2c(cc1Cl)COB2O [Compound 24]
≥ 80%: inhibition at 20 ppm [3]

COc1ccc(-c2cc3c(cc2F)COB3O)cn1 [Compound 76]
≥ 80%: inhibition at 20 ppm [3] | inhibition at 20 ppm [4]

O=Cc1ccc(-c2cc3c(cc2F)COB3O)o1 [Compound 26]
≥ 80%: inhibition at 20 ppm [5] | inhibition at 20 ppm [8] | inhibition at 20 ppm [2] | inhibition at 20 ppm [3] | inhibition at 20 ppm [9] | inhibition at 20 ppm [4] | inhibition at 20 ppm [10] | inhibition at 20 ppm [7]

OB1OCc2cc(Cl)c(-c3cnco3)cc21 [Compound 18]
≥ 80%: inhibition at 20 ppm [5] | inhibition at 20 ppm [2] | inhibition at 20 ppm [3] | inhibition at 20 ppm [9] | inhibition at 20 ppm [4] | inhibition at 20 ppm [6] | inhibition at 20 ppm [10] | inhibition at 20 ppm [7]

OB1OCc2cc(Cl)c(-c3cc4ccccc4s3)cc21 [Compound 47]
≥ 80%: inhibition at 20 ppm [5] | pest or weed control at 200 ppm [1] | inhibition at 20 ppm [2] | inhibition at 20 ppm [3] | inhibition at 20 ppm [4] | inhibition at 20 ppm [6]

Cc1cscc1-c1cc2c(cc1Cl)COB2O [Compound 53]
≥ 80%: inhibition at 20 ppm [2] | inhibition at 20 ppm [3] | inhibition at 20 ppm [4] | inhibition at 20 ppm [6] | inhibition at 20 ppm [7]

OB1OCc2cc(Cl)c(-c3cncnc3O)cc21 [Compound 19]
≥ 80%: inhibition at 20 ppm [4]
